Experimental data from patent publication US20230190650A1 (The University of North Carolina at Chapel Hill, priority 2020, published 2023).
Structures can show the parent of a compound that is named as a salt.

How the values were obtained:
[1] = Description: (§1) Identical samples were prepared with 0.5 g/L EDTA added as preservative). These aliquots were quantified by HPLC, alongside aliquots of the formulation (both with and without EDTA) treated in the same manner, which were dissolved in ethanol immediately before quantification.
(§2) The column was a YMC-Pack Pro C18 column (3 µm particle size, 120 Å pore size, 4.6 x 150 mm) and mobile phase was 30 mM potassium phosphate, 0.16% trimethylamine, adjusted to pH 4.9 with phosphoric acid, 30% Acetonitrile.
(§3) “Fridge” samples stored at 4° C., “Heat” at 40° C., “Light” on bench in clear vials. An “E” after the storage condition indicates samples with 5 g/L EDTA added as preservative.

[2] = Stability of drugs in the anesthetic formulation (HPLC); assay type: physicochemical; details: eutectic emulsion formulation
Description: as §1, §2, §3

[3] = In vitro dissolution testing of LBB-111 (release into PBS from 3D printed socket); assay type: physicochemical; details: from LBB-111; PBS pH 7.4, 37° C.
Description: As a first step to approximate release properties of LBB-111, we performed in vitro dissolution testing under various conditions. […] Mixing was accomplished using the smaller “mini” spin paddles at 59 rpm. Dissolution media [900 mL Phosphate buffered saline (PBS), pH 7.4] was equilibrated at 37° C. overnight before the start of a run. To mimic a human molar socket, cylindrical chambers with internal dimensions approximately 1 cm tall and 1 cm in diameter, with a high infill base to give the socket weight and stability were 3D printed at the UNC BeAM […] using an Ultimaker 3. Sockets were filled to the rim with formulation using an 18 g needle, and the formulation weight (around 0.8 g for these sockets) was recorded. The flat base of the socket was placed on the bottom of each dissolution chamber and mixing initiated. […] Referring now to FIG. 6, the graph illustrates drug released into PBS medium plotted as the fraction of the total that was present in the formulation at the start (% released). […] Formulation samples were dissolved in 19-times their weight (final conc. 5% wt) 200-proof ethanol, the ethanol dissolved samples were then diluted 5-fold into distilled water, and 10 μL of this dilution was injected.

[4] = cited from earlier work; for logD7.4: pH 7.4
[5] = local anesthetic activity profile; cited from earlier work
[6] = Partitioning of small molecules between aqueous phase and oily eutectic; assay type: physicochemical; details: after 10 minutes of mixing; 0.5 g/L bupivacaine-HCl, 5 g/L chlorobutanol, 25 g/L benzyl alcohol

SMILES	time to becoming undetectable in solution ([1]; saliva analogue buffer, light or heat (40° C.) conditions, without EDTA)	degradation in the formulation without EDTA [2]	relative release rate [3]	presence in the aqueous phase after mixing with the eutectic [6]	degradation in solution [1]	pKa [4]	logD7.4 [4]	Duration [5]	Onset [5]	Potency [5]	logP [4]	degradation in solution, Heat sample with EDTA [1]
CCOC(=O)c1ccc(N)cc1 [Benzocaine]	≤ 10 days	lack of benzocaine degradation	fastest		almost undetectable	2.8	1.86	Short	Fast	Low		
CCN(CC)CC(=O)Nc1c(C)cccc1C [Lidocaine]					almost undetectable			Moderate	Fast	Medium		some lidocaine degradation

More lines, main results first:

time to becoming undetectable in solution ([1]; saliva analogue buffer, light or heat (40° C.) conditions, without EDTA)	degradation in the formulation without EDTA [2]	relative release rate [3]	presence in the aqueous phase after mixing with the eutectic [6]	SMILES	degradation in solution [1]	pKa [4]	logD7.4 [4]	Duration [5]	Onset [5]	Potency [5]	logP [4]	degradation in solution, Heat sample with EDTA [1]
		slowest		CCCCN1CCCCC1C(=O)Nc1c(C)cccc1C (stereo not shown) [Bupivacaine]			2.39	Long	Moderate	High	3.41	
			undetectable	OCc1ccccc1 [benzyl alcohol]								
			undetectable	CCCCN1CCCCC1C(=O)Nc1c(C)cccc1C (stereo not shown) [bupivacaine-HCl, bupivacaine hydrochloride]								
